Molecular target: T1, EGFR (Homo sapiens, UniProt P00533)
T1 construct: endogenous in cells; host or cells: A431 cells (lysate, captured with SUMO1 anti-EGFR antibody)
Test: Biochemical EGFR Assay
Design: concentration or dose not given beside the values
Conditions: protocol P.167
Method in brief: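 Readout is ABTS absorbance at 410 nm after anti-phosphotyrosine and HRP-antibody detection of EGFR autophosphorylation. The kinase was immunocaptured from A431 lysate, exposed 30 min to test compound diluted 1:10 in TBS, then phosphorylated for 5 min with ATP/MnCl2 before an EDTA stop.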

T1 sequence (P00533 25-1210): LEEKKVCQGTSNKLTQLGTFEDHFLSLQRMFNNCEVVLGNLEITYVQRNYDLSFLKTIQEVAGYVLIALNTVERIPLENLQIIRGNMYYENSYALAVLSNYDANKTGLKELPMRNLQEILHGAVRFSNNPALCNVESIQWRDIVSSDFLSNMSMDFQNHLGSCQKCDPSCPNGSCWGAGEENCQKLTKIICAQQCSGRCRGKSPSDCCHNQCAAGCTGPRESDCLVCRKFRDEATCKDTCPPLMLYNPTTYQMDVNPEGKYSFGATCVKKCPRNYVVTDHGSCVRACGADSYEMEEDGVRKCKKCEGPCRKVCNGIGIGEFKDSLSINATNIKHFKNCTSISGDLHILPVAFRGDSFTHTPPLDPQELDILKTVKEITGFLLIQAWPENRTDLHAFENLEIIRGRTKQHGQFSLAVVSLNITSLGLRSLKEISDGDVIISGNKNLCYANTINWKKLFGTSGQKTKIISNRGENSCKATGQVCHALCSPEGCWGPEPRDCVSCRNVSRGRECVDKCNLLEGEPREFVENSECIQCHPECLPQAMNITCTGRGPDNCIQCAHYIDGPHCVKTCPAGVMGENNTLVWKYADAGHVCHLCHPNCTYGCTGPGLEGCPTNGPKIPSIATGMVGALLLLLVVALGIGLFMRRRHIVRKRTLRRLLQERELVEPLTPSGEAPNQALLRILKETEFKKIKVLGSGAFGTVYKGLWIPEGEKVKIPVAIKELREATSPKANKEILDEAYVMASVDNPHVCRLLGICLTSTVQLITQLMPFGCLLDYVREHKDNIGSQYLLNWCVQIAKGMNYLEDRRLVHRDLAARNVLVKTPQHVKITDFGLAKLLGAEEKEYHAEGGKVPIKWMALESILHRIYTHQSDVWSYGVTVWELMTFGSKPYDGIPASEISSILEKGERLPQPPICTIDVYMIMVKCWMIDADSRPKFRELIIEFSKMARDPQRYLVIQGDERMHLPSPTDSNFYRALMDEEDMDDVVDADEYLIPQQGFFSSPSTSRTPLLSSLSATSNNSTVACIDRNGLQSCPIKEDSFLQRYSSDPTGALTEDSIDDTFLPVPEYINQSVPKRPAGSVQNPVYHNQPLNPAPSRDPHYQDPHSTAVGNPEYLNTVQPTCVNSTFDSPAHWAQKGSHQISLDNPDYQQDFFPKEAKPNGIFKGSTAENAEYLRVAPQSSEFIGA

SMILES	Biochem EGFR % Inhibition (P.167)
Cc1c(Br)cc(Br)c2c1C(=Cc1cc(F)ccc1F)C(=O)N2 [10737/H04]	−17.6%
O=C1Nc2ccc(S(=O)(=O)Nc3ccc(C(F)(F)F)cc3)cc2C1=Cc1cccc(Oc2cccc(C(F)(F)F)c2)c1 [10737/E11]	−33.4%
O=C1Nc2ccc(I)cc2C1=Cc1ccc(Oc2ccccc2)cc1 [10737/B09]	26.4%
